Results from ChEMBL document CHEMBL4406824, “Phenolic N-monosubstituted carbamates: Antitubercular and toxicity evaluation of multi-targeting compounds” (Eur J Med Chem, 2019).
≈ marks a conversion by molar mass, not a printed value.

Key:
Mycobacterium avium [1] = assay: Antimycobacterial activity against Mycobacterium avium 330/88 after 21 days; format: functional; details: 330/88, 504 h
Mycobacterium kansasii [2] = assay: Antimycobacterial activity against Mycobacterium kansasii 6509/96 after 14 days; format: functional; details: 6509/96, 336 h
HepG2 [3] = assay: Cytostatic activity against human HepG2 cells preincubated for overnight in serum free medium followed by compound wash out and further incubated for 72 hrs in presence of serum by MTT assay; format: ADME, cell-based
[4] = tested on: Mycobacterium tuberculosis; format: functional; details: H37Rv 331/88, 504 h
Mycobacterium kansasii [5] = assay: Antimycobacterial activity against Mycobacterium kansasii 235/80 after 14 days; format: functional; details: 235/80, 336 h
Mycobacterium avium [6] = assay: Antimycobacterial activity against Mycobacterium avium 330/88 after 14 days; format: functional; details: 330/88, 336 h
in vitro = details: human, HepG2 cells
Description: Selectivity index, ratio of IC50 for human HepG2 cells to MIC for antimycobacterial activity against Mycobacterium tuberculosis H37Rv

[7] = tested on: Mycobacterium tuberculosis; assay: Antimycobacterial activity against Mycobacterium tuberculosis H37Ra ITM-M006710 after 48 hr by resazurin dye based microdilution method; format: functional; details: H37Ra ITM-M006710, 48 h
HepG2 [8] = assay: Cytotoxicity against human HepG2 cells assessed as reduction in cell viability after overnight incubation by MTT assay; format: cell-based
Mycolicibacterium aurum = assay: Antimycobacterial activity against Mycobacterium aurum DSM 43999 after 72 hr by resazurin dye based microdilution method; format: functional; details: DSM 43999, 72 h
[9] = tested on: Mycobacterium tuberculosis; format: functional, H37Rv 331/88; design: reference not given here
[10] = tested on: Mycobacterium tuberculosis; format: functional; details: H37Rv 331/88, 336 h
Mycobacterium kansasii [11] = assay: Antimycobacterial activity against Mycobacterium kansasii 235/80 after 7 days; format: functional; details: 235/80, 168 h
Mycobacterium kansasii [12] = assay: Antimycobacterial activity against Mycobacterium kansasii 6509/96 after 7 days; format: functional; details: 6509/96, 168 h
Mycobacterium kansasii [13] = assay: Antimycobacterial activity against Mycobacterium kansasii 235/80 after 21 days; format: functional; details: 235/80, 504 h
[14] = tested on: Mycolicibacterium smegmatis; assay: Antimycobacterial activity against Mycobacterium smegmatis DSM 43465 after 120 hr by resazurin dye based microdilution method; format: functional; details: DSM 43465, 120 h
Mycobacterium kansasii [15] = assay: Antimycobacterial activity against Mycobacterium kansasii 6509/96 after 21 days; format: functional; details: 6509/96, 504 h
[16] = tested on: Mycobacterium tuberculosis H37Rv; assay: Inhibition of recombinant Mycobacterium tuberculosis H37Rv ICL1 expressed in Escherichia coli BL21 (DE3) cells at 10 uM using (+)-potassium Ds-threo-isocitrate as substrate by glyoxylate phenyl hydrazone formation assay relative to control
Mycobacterium kansasii [17] = assay: Potency index, ratio of p-aminosalicylic acid MIC to compound MIC for antimycobacterial activity against Mycobacterium kansasii 6509/96; format: functional
Mycobacterium kansasii [18] = assay: Potency index, ratio of p-aminosalicylic acid MIC to compound MIC for antimycobacterial activity against Mycobacterium kansasii 235/80; format: functional

SMILES	MIC (Mycobacterium avium [1]) [µM]	MIC (Mycobacterium kansasii [2]) [µM]	IC50 (HepG2 [3]) [µM]	MIC [4] [µM]	MIC (Mycobacterium kansasii [5]) [µM]	MIC (Mycobacterium avium [6]) [µM]	selectivity ratio (in vitro)	MIC [7] [µg/mL]	IC50 (HepG2 [8]) [µM]	MIC (Mycolicibacterium aurum) [µg/mL]	Ratio [9]	MIC [10] [µM]	MIC (Mycobacterium kansasii [11]) [µM]	MIC (Mycobacterium kansasii [12]) [µM]	MIC (Mycobacterium kansasii [13]) [µM]	MIC [14] [µg/mL]	MIC (Mycobacterium kansasii [15]) [µM]	inhibition [16] [%]	Ratio (Mycobacterium kansasii [17])	Ratio (Mycobacterium kansasii [18])
O=C(Nc1ccccc1)Oc1ccc(Cl)cc1C(=O)Nc1ccc(F)cc1	32 (≈ 12.3 µg/mL)	16 (≈ 6.16 µg/mL)	3.25	8 (≈ 3.08 µg/mL)	16 (≈ 6.16 µg/mL)	32 (≈ 12.3 µg/mL)	> 2.5	3.12 (≈ 8.12 µM)	> 20	1.98 (≈ 5.15 µM)	>125	4 (≈ 1.54 µg/mL)	8 (≈ 3.08 µg/mL)	8 (≈ 3.08 µg/mL)	32 (≈ 12.3 µg/mL)	1.98 (≈ 5.15 µM)	16 (≈ 6.16 µg/mL)	16	>250	>250
O=C(NC1CCCCC1)Oc1ccc(Cl)cc1C(=O)Nc1ccc(Cl)cc1	16 (≈ 6.52 µg/mL)	8 (≈ 3.26 µg/mL)	33.6	16 (≈ 6.52 µg/mL)	32 (≈ 13 µg/mL)	16 (≈ 6.52 µg/mL)	> 15.6	3.12 (≈ 7.67 µM)	> 250	1.56 (≈ 3.83 µM)	>125	16 (≈ 6.52 µg/mL)	16 (≈ 6.52 µg/mL)	8 (≈ 3.26 µg/mL)	32 (≈ 13 µg/mL)	1.56 (≈ 3.83 µM)	8 (≈ 3.26 µg/mL)	13	>250	>250
O=C(NCCc1ccccc1)Oc1ccccc1C(=O)Nc1ccccc1	125 (≈ 45.1 µg/mL)	250 (≈ 90.1 µg/mL)	55.6	125 (≈ 45.1 µg/mL)	250 (≈ 90.1 µg/mL)	125 (≈ 45.1 µg/mL)	> 1	15.6 (≈ 43.3 µM)	> 125	31.2 (≈ 86.7 µM)		125 (≈ 45.1 µg/mL)	125 (≈ 45.1 µg/mL)	125 (≈ 45.1 µg/mL)	250 (≈ 90.1 µg/mL)	31.2 (≈ 86.7 µM)	250 (≈ 90.1 µg/mL)	6		
O=C(NCc1ccccc1)Oc1ccc(Cl)cc1C(=O)Nc1ccc(Cl)cc1	16 (≈ 6.64 µg/mL)	8 (≈ 3.32 µg/mL)	6.4	16 (≈ 6.64 µg/mL)	8 (≈ 3.32 µg/mL)	8 (≈ 3.32 µg/mL)	> 15.6	1.56 (≈ 3.76 µM)	> 250	1.56 (≈ 3.76 µM)	>125	16 (≈ 6.64 µg/mL)	8 (≈ 3.32 µg/mL)	4 (≈ 1.66 µg/mL)	16 (≈ 6.64 µg/mL)	1.56 (≈ 3.76 µM)	8 (≈ 3.32 µg/mL)	11	>250	>250
O=C(NC12CC3CC(CC(C3)C1)C2)Oc1ccccc1C(=O)Nc1ccccc1	125 (≈ 48.8 µg/mL)	250 (≈ 97.6 µg/mL)	233	125 (≈ 48.8 µg/mL)	125 (≈ 48.8 µg/mL)	125 (≈ 48.8 µg/mL)	> 2	250 (≈ 640 µM)	> 250	≥ 250		125 (≈ 48.8 µg/mL)	125 (≈ 48.8 µg/mL)	125 (≈ 48.8 µg/mL)	125 (≈ 48.8 µg/mL)	250 (≈ 640 µM)	250 (≈ 97.6 µg/mL)	9		
O=C(NC1CCCCC1)Oc1ccc(Cl)cc1	1000 (≈ 254 µg/mL)	250 (≈ 63.4 µg/mL)	> 125	500 (≈ 127 µg/mL)	500 (≈ 127 µg/mL)	500 (≈ 127 µg/mL)	> 0.3	500 (≈ 1970 µM)	> 125	≥ 500		500 (≈ 127 µg/mL)	250 (≈ 63.4 µg/mL)	125 (≈ 31.7 µg/mL)	1000 (≈ 254 µg/mL)	≥ 500	250 (≈ 63.4 µg/mL)	16		
O=C(NC1CCCCC1)Oc1ccccc1C(=O)Nc1ccccc1	125 (≈ 42.3 µg/mL)	250 (≈ 84.6 µg/mL)	51.5	125 (≈ 42.3 µg/mL)	250 (≈ 84.6 µg/mL)	125 (≈ 42.3 µg/mL)	0.4	15.6 (≈ 46.2 µM)	49	15.6 (≈ 46.2 µM)		125 (≈ 42.3 µg/mL)	125 (≈ 42.3 µg/mL)	125 (≈ 42.3 µg/mL)	250 (≈ 84.6 µg/mL)	15.6 (≈ 46.2 µM)	250 (≈ 84.6 µg/mL)	8		
O=C(NCc1ccccc1)Oc1ccccc1C(=O)Nc1ccccc1	125 (≈ 43.3 µg/mL)	250 (≈ 86.6 µg/mL)	54.3	125 (≈ 43.3 µg/mL)	250 (≈ 86.6 µg/mL)	125 (≈ 43.3 µg/mL)	> 1	15.6 (≈ 45.1 µM)	> 125	31.2 (≈ 90.2 µM)		125 (≈ 43.3 µg/mL)	125 (≈ 43.3 µg/mL)	125 (≈ 43.3 µg/mL)	250 (≈ 86.6 µg/mL)	31.2 (≈ 90.2 µM)	250 (≈ 86.6 µg/mL)	8		
